Experiments:
PGE2 = experiment: Quantification of the release of PGE2 into culture supernatants of HaCaT keratinocytes (immunoenzymatic kit, related to total proteins); type: cell-based; conditions: for Inhibitory activity (%) (release of PGE2) / pg PGE2/mg prot / Liberation PGE2 (%): alkyl glycoside alone at 1 μM, 24 hours, HaCaT; for Liberation PGE2 (%): control (-) = 100
Experimental: PGE2 is an important marker of inflammatory response linked to tissue damage. It is produced by a wide variety of cells including monocytes, macrophages or keratinocytes.
(§1) The release of the Il-8 and PGE2 markers into cell line culture supernatants of immortalized keratinocytes (HaCaT), stimulated for 24 hours in the presence of oligosaccharides is quantified.
(§2) HaCaTs are cultured to 80% confluence.
(§3) A treatment is carried out over 24 hours with the product to be evaluated with, in the case of Il-8 alone, a parallel stimulation with interleukin-1.
(§4) The culture supernatants containing the markers are collected and stored at −20° C. up to the day of the assay.
(§5) The assay is carried out with the aid of a kit specific for each of the markers.
Assay of PGE2 by means of the Parameter PGE2 kit (R&D system).
(§6) These HaCaTs are inoculated at the rate of 10 000 cells/well (supplemented KSFM culture medium, Gibco) in a 96-well microplate.
(§7) The plate is placed in an incubator (37° C. and 5% CO2) for 24 hours.
(§8) The oligosaccharides, initially in the form of a 1 mM stock solution in DMSO, are exposed to the cells after suitable dilution in culture medium.
A column is treated with indomethacin as positive control inhibiting the release of PGE2.
(§9) Each concentration of product, the positive control and the control without treatment, are evaluated on 4 or 6 wells of HaCaT.
(§10) After 24 hours of treatment, the culture supernatants are collected and stored at −20° C.
(§11) The assay is carried out according to the protocol described in each of the kits, by an immunoenzymatic test which makes it possible to assay, by spectrophotometric measurement at 450 nm, the respective quantities of Il-8 and of PGE2 present in the supernatants.
(§12) The absorbance (OD) values obtained for the 2-fold dilution series for IL-8 standard and PGE2 standard (7 concentrations, in duplicate) are plotted on a logarithmic graph.
(§13) The known concentrations of IL-8 and PGE2, expressed in pg/ml, are plotted on the x-axis and the absorbance values on the y-axis, in order to obtain a straight line.
(§14) The absorbance values measured for each sample are in turn plotted on the graph, in order to determine the respective IL-8 and PGE2 concentrations, expressed in pg/ml.
(§15) The assay (in mg/ml) of the total proteins present in the cellular pellets, after treatment or non-treatment of the HaCaTs, makes it possible to relate the assay of IL-8 and of PGE2 to the quantity of proteins in each well of cells, expressed in picograms (pg) of markers per milligram (mg) of proteins.
(§16) The absorbance values for the 6 wells are converted to mg of proteins per well of HaCaT by means of the straight line obtained by the calibration series (quantity of proteins known for an absorbance determined at 570 nm).
(§17) Finally, for each well and each treatment condition, a quantitative assay of the release of Il-8 and of PGE2 is obtained, in pg/ml.
The test is carried out at a concentration of alkyl glycosides equal to 1 μM, after dilution in the culture medium.

Il-8 = experiment: Quantification of the release of Il-8 into culture supernatants of HaCaT keratinocytes stimulated with Il-1 beta (ELISA, related to total proteins); type: cell-based, human; conditions: for Inhibitory activity (%) (release of Il-8) / Liberation Il-8 (%) / pg IL8/mg prot: alkyl glycoside alone at 1 μM, 24 hours; for Inhibitory activity (%) (release of Il-8) / Liberation Il-8 (%): HaCaT + Il-1 beta; for Liberation Il-8 (%): control (-) = 100; for pg IL8/mg prot: HaCaT stimulated with Il-1 beta 25 ng/ml; for anti-Il-8 activity, in words: compounds tested alone, 1 μM
Experimental: as §1, §2, §3, §4, §5
The assay of human Il-8 by means of the ELISA AbC204/3 kit (Abcys).
as §6, §7, §8
In parallel, for Il-8, the cells are stimulated with Il-1 beta at 25 ng/ml.
A column is treated with cholecalciferol (vitamin D3) at 0.39 μg/ml and stimulated with Il-1 beta, as positive control inhibiting the release of Il-8.
A control column is not treated and stimulated with Il-1 beta.
as §9, §10, §11, §12, §13, §14, §15, §16, §17
This assay is related to a quantity of proteins, expressed in mg/ml. The final quantitative result for Il-8 is therefore expressed in pg/mg of proteins.
The percentage inhibition of the production of IL-8 is calculated as follows: […]
The test is carried out at a concentration of alkyl glycosides equal to 1 μM, after dilution in the culture medium, the negative control is pure DMSO.

SMILES	Inhibitory activity (%) (release of PGE2) (PGE2)	pg PGE2/mg prot (PGE2) [pg/mg prot]	Liberation PGE2 (%) (PGE2)	Inhibitory activity (%) (release of Il-8) (Il-8)	Liberation Il-8 (%) (Il-8)	pg IL8/mg prot (Il-8) [pg/mg prot]	PGE2 inhibiting activity, in words (PGE2; compounds tested alone, 1 μM)	anti-Il-8 activity, in words (Il-8)	anti-Il-8 activity, in words (Il-8; listed as dodecyl maltotrioside)
CCCCCCCCO[C@@H]1O[C@H](CO)[C@@H](O)[C@H](O)[C@H]1O [DP1-8, n-Octyl-beta-D-glucopyranoside, reference compound]	0.3	312.8	99.7	9.1	91.0	1121.6	–	–	–
CCCCCCCCCCCCO[C@@H]1O[C@H](CO)[C@@H](O)[C@H](O)[C@H]1O [DP1-12, n-dodecyl-beta-D-glucopyranoside, reference compound]	52.2	150.0	47.8	24.6	75.4	930.3	–	–	–
CO[C@@H]1O[C@H](CO)[C@@H](O[C@H]2O[C@H](CO)[C@@H](O)[C@H](O)[C@H]2O)[C@H](O)[C@H]1O [DP2-1, methyl beta-D-maltoside]	58.2	131.3	41.8	59.6	40.4	497.7	–	–	–
CCCCCCCCO[C@@H]1O[C@H](CO)[C@@H](O[C@H]2O[C@H](CO)[C@@H](O)[C@H](O)[C@H]2O)[C@H](O)[C@H]1O [DP2-8, octyl beta-D-maltoside]	37.7	195.5	62.3	69.4	30.6	377.7	–	–	–
CCCCCCCCCCCCO[C@@H]1O[C@H](CO)[C@@H](O[C@H]2O[C@H](CO)[C@@H](O)[C@H](O)[C@H]2O)[C@H](O)[C@H]1O [DP2-12, dodecyl beta-D-maltoside]	49.1	159.8	50.9	82.9	17.1	211.0	–	–	–
CO[C@@H]1O[C@H](CO)[C@@H](O[C@H]2O[C@H](CO)[C@@H](O[C@H]3O[C@H](CO)[C@@H](O)[C@H](O)[C@H]3O)[C@H](O)[C@H]2O)[C@H](O)[C@H]1O [DP3-1, methyl beta-D-maltotrioside]	49.1	159.6	50.9	71.9	28.1	346.6	–	–	–
CCCCCCCCCCCCO[C@@H]1O[C@H](CO)[C@@H](O[C@H]2O[C@H](CO)[C@@H](O[C@H]3O[C@H](CO)[C@@H](O)[C@H](O)[C@H]3O)[C@H](O)[C@H]2O)[C@H](O)[C@H]1O [DP3-12, dodecyl beta-D-maltotrioside]	18.8	171.8	81.2	20.1	79.9	521.5	acts on both markers	acts on both markers	very small effect on the release of Il-8
